“And” between values parts separate entries of the source, which are not always exact repeats. Identical values can stand only once. Counter-ions that a name gives are not always drawn.
Columns and labels:
[1] = tested on: C. elegans BY250 [vtIs7 (Pdat-1:GFP)] CEP neurons; assay: 6-OHDA-induced neurodegeneration of CEP neurons in the C. elegans model of PD; format: in vivo, Caenorhabditis elegans; settings: 6-OHDA 5 mM alone for 30 min, scored after 72 h
Excerpt: The nematode Caenorhabditis elegans (C. elegans) has been increasingly employed as a genetically tractable in vivo model to study the molecular mechanisms involved in several NDDs due to a short life cycle, fast reproduction, and a highly conserved inheritance (genetic basis).[35] This invertebrate model offers the opportunity to take advantage of the significant conservation of genes and metabolic pathways common to both invertebrates and humans. At the neuronal level, the adult wild-type C. elegans organism contains only eight DA neurons that repeat the features of DA neurons of mammalian, making it possible to simplify the investigations considerably. In the transgenic BY250 [vtIs7 (Pdat-1:GFP)] strain, six DA neurons in the head, namely the four sensory cephalic (CEP) and the two anterior deirid (ADE) neurons, express the green fluorescent protein (GFP) and can be clearly visualized by fluorescence microscopy analysis and thus scored over time.[36] Indeed, in this model, investigations of DA neurons degeneration in vivo are feasible through a first exposition of the nematode to PD-inducing toxin, namely 6-OHDA, followed by direct visualization of the GFP-labeled DA neurons.[37] It is thus possible to screen small molecules for their anti-PD potential, in terms of rescue of the DA neurodegeneration phenotype manifested upon neurotoxin exposure, through visualization and scoring of the alterations of CEP neuron count or neuronal morphology. […] This effect makes it possible the identification of neuroprotective agents with the ability to activate Nrf2 through the inhibition of GSK-3.[38] The curcumin-DEF hybrids 4 and 5 were investigated in the above C. elegans model for their protective effects on 6-OHDA-induced degeneration of a subclass of DA neurons. Animals were incubated with 5 μM concentration of 4 and 5, in the presence of 5 mM of 6-OHDA, for 30 min. After 72 h, the animals were studied by examining the four CEP neurons. Degenerating CEP neurons were morphologically analyzed and quantified (Figure 8). We recorded that in animals treated with 6-OHDA, 68% of CEP neurons degenerated.
Figure 8 Effects of 4 and 5 on 6-OHDA-induced neurodegeneration in C. elegans. Animals were treated with 4 or 5 (5 μM) in the presence of 6-OHDA (5 mM) for 30 min. At the end of incubation, treated animals were placed on fresh agar plates for 72 h and then visualized as described in the Materials and Methods section. (A) In nontreated vtIs7 [pdat-1::GFP] transgenic animals, dopaminergic neurons express GFP, with two of the four CEP cell bodies (white arrows) and relative dendrites (arrowheads) visible in this focal plane in the head. (B) 6-OHDA treatment causes the degeneration of CEP dendrites (empty arrowheads) and two cell bodies (gray arrows), in treated animals. The other two CEP neurons are not visible anymore. (C) Compound 5 cotreatment partially rescues the 6-OHDA-induced toxic effects, with degeneration of one of the CEP dendrites (empty arrowhead) but not the other (arrowhead) and with one CEP cell body still viable (white arrow) and one dying (gray arrow) in this focal plane. […] ADE neurons, which are less affected by 6-OHDA treatment, are also visible but were not scored (asterisks). (D) Quantification of degenerating CEP neurons. Data are expressed as percentages of degenerating neurons and reported as mean ± SEM of at least three independent experiments. […]

PAMPA-BBB assay = settings: for Papp at 2.5 h: pig, PAMPA, pH 7.4; for prediction (penetration in the CNS): from PAMPA-BBB Pe
GSK-3β [2] = tested on: GSK-3β; set-up: method as in PMID 28597702; settings: previously identified GSK-3β inhibitors; ref 21b; cited from earlier work
GSK-3β [3] = molecular target: T1, GSK-3β (Homo sapiens, UniProt P49841); assay: Kinetic study of GSK-3β inhibition, competition with ATP (ADP-Glo Kinase Assay); format: biochemical; settings: ATP 1 to 50 μM; inhibitors 5 and 10 μM; substrate 25 μM; double reciprocal plot
Protocol: Figure 2 Kinetic data for the curcumin-DEF hybrids 5 and 6. In the reaction mixture, the concentration of compounds employed is reported in the plot, the concentration of the substrate is constant (25 μM), and the concentration of ATP changes from 1 to 50 μM. Each point is the mean of two different experiments analyzed in triplicate.
Kinetic experiments were performed using the ADP-Glo Kinase Assay,[42] in which ATP concentration varied from 1 to 50 μM, the concentrations of inhibitors employed were 5 and 10 μM, while the concentration of GS2 was kept constant (25 μM). Graphs (Figure 2) report the double reciprocal plot of the data.

GSK-3β [4] = molecular target: T1, GSK-3β; assay: GSK-3β inhibition, luminescent kinase assay (Kinase-Glo); settings: for IC50: GSK-3β inhibition IC50 (μM) ± SEM, human recombinant enzyme, luminescence method
Protocol: A kinetic study was performed in which the concentrations of both ATP and tested compounds were varied, while the concentration of the substrate was kept constant.
GSK-3β inhibition . Kinase-Glo assays (Promega Biotech Iberica, SL) were performed in assay buffer using
black 96-well plates. In a typical assay, 10 µl (10 µM) of test compound (dissolved in DMSO at 1 mM concentration and diluted in advance in assa y buffer to the desired concentration) and 10 µL (20 ng) of
enzyme were added to each well followed by 20 µl of assay buffer containing 50 µM substrate and 2 µM ATP.
After 30 -min incu bation at 30 °C
the enzymatic reaction was stopped with 40 µL of Kinase -Glo reagent. Glow -type luminescence was recorded
after 10 min using a FLUOstar Optima (BMG Labtechnologies GmbH, Offenburg Germany) multimode reader.
The activity is proportional to th e difference in the total and consumed ATP. The inhibitory activities were
calculated on the basis of maximal activities measured in the absence of inhibitor. The IC 50 was defined as the concentration of each compound that reduces a 50 % the enzymatic activity with respect to that without
inhibitors. Five different concentrations by duplicate were used to determine the dose/response curve.

[5] = Chemical stability study by RP-HPLC; format: physicochemical; settings: DMSO 0.50 mg/mL, pH 7.4 with 50 mM phosphate, 70 °C, 24 h
Protocol: Conscious of the liabilities that might affect the newly synthesized curcumin-fumarate hybrids involving both the curcumin scaffold and the ester function, the chemical stability of the ester-based 6 and its carboxylic-acid counterpart 7 was studied by RP-HPLC.[21b]
The tested derivatives 6 and 7 were dissolved in DMSO (0.50 mg/mL), and the pH of the solution was adjusted to 7.4 using 50 mM phosphate. The obtained solutions were then maintained at 70 °C (oven) for 24 h and analyzed by RP-HPLC under the conditions reported in the General Procedures section.

SH-SY5Y cells [6] = assay: t-BuOOH-induced intracellular ROS formation (H2DCF-DA probe); format: cell-based, human; settings: then t-BuOOH 100 μM for 30 min
Excerpt: Oxidative stress represents a remarkable pathological feature in NDDs; it is the consequence of an imbalance between the formation of reactive radical species, among others ROS, and the function of many defense antioxidant enzymes. Initially, the potential of compounds 4–7 as indirect antioxidants was investigated[31] by assessing their capability to protect from oxidative stress through prevention of ROS formation upon exposure to tert-butyl hydroperoxide (t-BuOOH). In detail, SH-SY5Y cells were first chronically treated for 24 h (the time necessary to activate the endogenous antioxidant system) with 4–7 (5 μM) and then exposed to 100 μM of t-BuOOH for 30 min; DMF (5 and 10 μM) was employed as the reference compound. Then, the intracellular ROS formation was detected by fluorescent probe 2′-7′-dichlorodihydrofluorescein diacetate (H2DCF-DA).
Figure 3 Antioxidant activity of compounds 4–7 and DMF against t-BuOOH-induced ROS formation in SH-SY5Y cells. Cells were treated with compounds 4–7 (5 μM) and DMF (5 and 10 μM) for 24 h and then with t-BuOOH (100 μM) for 30 min. At the end of treatment, the ROS formation was evaluated by probe H2DCF-DA. Results are expressed as mean ± SEM of at least three independent experiments (* p < 0.05 and ** p < 0.01 vs cells treated with t-BuOOH at one-way ANOVA with the Dunnett post hoc test).
ROS formation was evaluated by using the fluorescent probe H2DCF-DA, as previously described.[43]

SH-SY5Y cells [7] = assay: Intracellular GSH levels (MCB probe); format: cell-based, human; settings: DMF at 5 and 10 μM, 24 h
Protocol: By observing the reduction of ROS levels following a long treatment of the curcumin-DEF hybrids before the treatment with t-BuOOH, we hypothesized that the antioxidant effect might likely result from an increase in levels of GSH. This endogenous antioxidant plays critical roles in protecting cells against oxidative stress damage.[32] Thus, the intracellular GSH levels were analyzed by employing the same experimental conditions used to evaluate the indirect antioxidant effect by fluorescent probe monochlorobimane (MCB). […] For the most promising compounds 4 and 5, the effect on GSH levels at different times (3–24 h) was studied.
Figure 4 Effects of compounds 4–7 and DMF on GSH levels in SH-SY5Y cells. Cells were treated with (A) compounds 4–7 (5 μM) and DMF (5 and 10 μM) for 24 h. (B) Cells were treated with compounds 4 and 5 (5 μM) for different times (3, 6, 12, and 24 h). At the end of the treatment, the GSH levels were evaluated by probe MCB. Results are expressed as mean ± SEM of at least three independent experiments (** p < 0.01 and *** p < 0.001 vs untreated cells at one-way ANOVA with the Dunnett post hoc test).
GSH levels were evaluated by using the fluorescent probe MCB, as previously described.[44]

[8] = pig, PAMPA, 2.5 h, pH 7.4
in vitro = settings: pig, PAMPA, pH 7.4
[9] = set-up: method as in earlier work; settings: literature values of commercial drugs; ref 1 (Di et al., 2003); cited from earlier work

T1 sequence (P49841 whole entry): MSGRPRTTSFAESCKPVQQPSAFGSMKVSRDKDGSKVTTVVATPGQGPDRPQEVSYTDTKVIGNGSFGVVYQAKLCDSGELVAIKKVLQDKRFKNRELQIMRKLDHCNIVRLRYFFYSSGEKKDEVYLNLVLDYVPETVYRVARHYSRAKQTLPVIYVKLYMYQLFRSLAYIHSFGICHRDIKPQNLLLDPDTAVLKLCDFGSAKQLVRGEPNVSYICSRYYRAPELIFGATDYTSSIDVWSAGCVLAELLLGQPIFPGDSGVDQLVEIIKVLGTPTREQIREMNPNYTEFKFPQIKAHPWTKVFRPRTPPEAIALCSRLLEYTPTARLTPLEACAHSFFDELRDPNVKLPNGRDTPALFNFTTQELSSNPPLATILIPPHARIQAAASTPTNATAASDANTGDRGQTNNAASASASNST

NCCc1cc(O)c(O)cc1O [6-OHDA, 6-hydroxydopamine, reference compound]
degenerating CEP neurons [1]: 68%

Cn1c(=O)c2c(ncn2C)n(C)c1=O [Caffeine, reference compound]
Papp at 2.5 h (PAMPA-BBB assay): 5 nm/s

COc1ccc(/C=C/C(=O)/C=C(O)/C=C/c2ccc(OC)cc2)cc1 [Compound 1]
IC50 (GSK-3β [2]): 0.53 µM

COc1ccc(/C=C/C(O)=C/C(=O)/C=C/c2ccc(OCc3ccccc3)cc2)cc1 [Compound 2]
IC50 (GSK-3β [2]): 2.78 µM

O=C(/C=C(O)/C=C/c1ccc(OCc2ccccc2)cc1)/C=C/c1ccc(OCc2ccccc2)cc1 [Compound 3]
IC50 (GSK-3β [2]): 2.49 µM

CCOC(=O)/C=C/C(C(=O)/C=C/c1ccc(OCc2ccccc2)cc1)=C(O)\C=C\c1ccc(OCc2ccccc2)cc1 [Compound 6, Ethyl (2E,4Z,6E)-7-(4-(Benzyloxy)phenyl)-4-((E)-3-(4-(benzyloxy)phenyl)acryloyl)-5-hydroxyhepta-2,4,6-trienoate]
mechanism of inhibition as regards competition with ATP (GSK-3β [3]): noncompetitive inhibitors of ATP binding
IC50 (GSK-3β [4]): 6.1 µM and 6.09 µM
chemical stability [5]: stable
t-BuOOH-induced intracellular ROS formation (SH-SY5Y cells [6]; 5 μM for 24 h): not
melting point: 153 to 155 °C
prediction (penetration in the CNS) (PAMPA-BBB assay): CNS + (compounds showing a Pe value superior to 2.26 × 10^–6 cm s^–1 could be regarded as able to permeate the brain compartment and thus classified as (CNS +))
Papp at 2.5 h (PAMPA-BBB assay): 45 ± 6 nm/s

O=C(O)/C=C/C(C(=O)/C=C/c1ccc(OCc2ccccc2)cc1)=C(O)\C=C\c1ccc(OCc2ccccc2)cc1 [Compound 7, (2E,4Z,6E)-7-(4-(Benzyloxy)phenyl)-4-((E)-3-(4-(benzyloxy)phenyl)acryloyl)-5-hydroxyhepta-2,4,6-trienoic Acid]
IC50 (GSK-3β [4]): > 10 µM
inhibition at 10 µM (GSK-3β [4]; read-out: GSK-3β inhibition, inhibition (%)): 46%
chemical stability [5]: formation of a degradation product was observed
t-BuOOH-induced intracellular ROS formation (SH-SY5Y cells [6]; 5 μM for 24 h): not
melting point: 182 to 184 °C
prediction (penetration in the CNS) (PAMPA-BBB assay): CNS +/CNS –
Papp at 2.5 h (PAMPA-BBB assay): 17 ± 10 nm/s

COC(=O)/C=C/C(=O)OC [DMF, dimethyl fumarate, reference compound]
t-BuOOH-induced intracellular ROS formation (SH-SY5Y cells [6]; DMF 5 and 10 μM for 24 h): significant reduction
increase in GSH levels (SH-SY5Y cells [7]): 2–3 fold

CNCCCN1c2ccccc2CCc2ccccc21 [Desipramine]
Pe (10-6 cm s-1) [8]: 8,7 10-6 cm s-1

CCn1cc(C(=O)O)c(=O)c2cc(F)c(N3CCNCC3)nc21 [Enoxacin]
Papp at 2.5 h (in vitro): 5 nm/s

CN1C(C(=O)Nc2ccccn2)=C(O)c2ccccc2S1(=O)=O [Piroxicam, reference compound]
Bibl. Pe [9]: 2.5 10-6 cm s-1
Papp at 2.5 h (PAMPA-BBB assay): 4 nm/s

CN(C)CCCN1c2ccccc2Sc2ccccc21 [Promazine, reference compound]
Bibl. Pe [9]: 8.8 10-6 cm s-1
Papp at 2.5 h (PAMPA-BBB assay): 59 nm/s

— article PMC8009478, “Novel Curcumin-Diethyl Fumarate Hybrid as a Dualistic GSK-3β Inhibitor/Nrf2 Inducer for the Treatment of Parkinson’s Disease” (ACS Chemical Neuroscience, 2020)
